In US12503475B2 (Centessa Pharmaceuticals (UK) Limited, priority 2020, dated 2025):

Biological target: T1, human orexin type 2 receptor (hOX2R) (Homo sapiens, UniProt O43614)
T1 construct: expressed in transfected cells
T1 sequence (O43614 1-444): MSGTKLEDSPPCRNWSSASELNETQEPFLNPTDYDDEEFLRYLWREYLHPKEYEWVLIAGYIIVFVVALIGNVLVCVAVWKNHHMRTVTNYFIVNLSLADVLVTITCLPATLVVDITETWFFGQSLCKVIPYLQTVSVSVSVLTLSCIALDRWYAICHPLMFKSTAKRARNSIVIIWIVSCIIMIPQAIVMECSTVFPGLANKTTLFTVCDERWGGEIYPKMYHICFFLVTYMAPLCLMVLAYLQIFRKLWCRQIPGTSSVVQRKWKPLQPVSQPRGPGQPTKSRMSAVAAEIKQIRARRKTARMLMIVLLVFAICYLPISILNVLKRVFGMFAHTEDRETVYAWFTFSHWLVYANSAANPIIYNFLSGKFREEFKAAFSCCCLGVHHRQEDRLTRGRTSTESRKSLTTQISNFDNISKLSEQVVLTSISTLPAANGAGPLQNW
Experiment: Measurement of orexin type 2 receptor agonist activity (FLIPR calcium fluorescence)
Format: cell-based
Details: CHO cells expressing hOX2R, FLIPR calcium fluorescence; for EC50: read-out: hOx2 pEC50 (converted); for Emax: CHO, read-out: hOx2 Emax (%)
In short: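 Agonism was read as fluorescence in cells stably expressing human OX2R. E. is the response at 10 μM relative to orexin A as full agonist (100%).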

Compound	EC50 [nM]	Emax [%]
[2H]c1c([2H])c([2H])c(-c2cc(F)cc(C[C@H]3[C@@H](NS(C)(=O)=O)C4(CC4)CN3C(=O)[C@H]3CCO3)c2F)c([2H])c1[2H] [Compound 348, N-((6S,7S)-6-((2,5-difluoro-[1,1′-biphenyl]-3-yl-2′,3′,4′,5′,6′-d5)methyl)-5-((R)-oxetane-2-carbonyl)-5-azaspiro[2.4]heptan-7-yl)methanesulfonamide]	1 to 10	90 to 100
O=C([C@H]1CCO1)N1CC2(CC2)[C@H](NS(=O)(=O)C2CC2)[C@@H]1Cc1cc(F)cc(-c2ccccc2)c1F [Compound 349, N-((6S,7S)-6-((2,5-difluoro-[1,1′-biphenyl]-3-yl)methyl)-5-((R)-oxetane-2-carbonyl)-5-azaspiro[2.4]heptan-7-yl)cyclopropanesulfonamide]	1 to 10	90 to 100
CS(=O)(=O)N[C@@H]1[C@H](Cc2cc(F)cc(-c3ccccc3F)c2F)N(C(=O)[C@H]2CCO2)CC12CC2 [Compound 350, N-((6S,7S)-5-((R)-oxetane-2-carbonyl)-6-((2,2′,5-trifluoro-[1,1′-biphenyl]-3-yl)methyl)-5-azaspiro[2.4]heptan-7-yl)methanesulfonamide]	10 to 100	90 to 100
CS(=O)(=O)N[C@@H]1[C@H](Cc2cc(F)cc(-c3ccccc3)c2F)N(C(=O)[C@H](O)C2CC2)CC12CC2 [Compound 352, N-((6S,7S)-5-((R)-2-cyclopropyl-2-hydroxyacetyl)-6-((2,5-difluoro-[1,1′-biphenyl]-3-yl)methyl)-5-azaspiro[2.4]heptan-7-yl)methanesulfonamide]	1 to 10	90 to 100
CN(C)S(=O)(=O)N[C@@H]1[C@H](Cc2cc(F)cc(-c3ccccc3)c2F)N(C(=O)[C@H](O)CF)CC12CC2 [Compound 353]	1 to 10	90 to 100
CN(C)C(=O)N1CC2(CC2)[C@H](NS(C)(=O)=O)[C@@H]1Cc1cc(F)cc(-c2ccccc2)c1F [Compound 354, (6S,7S)-6-((2,5-difluoro-[1,1′-biphenyl]-3-yl)methyl)-N,N-dimethyl-7-(methylsulfonamido)-5-azaspiro[2.4]heptane-5-carboxamide]	10 to 100	90 to 100
[2H]C([2H])([2H])N(C(=O)N1CC2(CC2)[C@H](NS(C)(=O)=O)[C@@H]1Cc1cc(F)cc(-c2ccccc2)c1F)C([2H])([2H])[2H] [Compound 355, (6S,7S)-6-((2,5-difluoro-[1,1′-biphenyl]-3-yl)methyl)-N,N-bis(methyl-d3)-7-(methylsulfonamido)-5-azaspiro[2.4]heptane-5-carboxamide]	10 to 100	90 to 100
[2H]c1ccc(-c2cc(F)cc(C[C@H]3[C@@H](NS(C)(=O)=O)C4(CC4)CN3C(=O)[C@H]3CCO3)c2F)cc1 [Compound 359]	10 to 100	90 to 100
CC(C)(O)C(=O)N1CC2(CC2)[C@H](NS(C)(=O)=O)[C@@H]1Cc1cccc(-c2ccccc2F)c1F [Compound 361, N-((6S,7S)-6-((2,2'-difluoro-[1,1′-biphenyl]-3-yl)methyl)-5-(2-hydroxy-2-methylpropanoyl)-5-azaspiro[2.4]heptan-7-yl)methanesulfonamide]	10 to 100	80 to 90
[2H]C([2H])([2H])C([2H])([2H])NC(=O)N1CC2(CC2)[C@H](NS(C)(=O)=O)[C@@H]1Cc1cccc(-c2ccccc2)c1OC [Compound 363, (6S,7S)-N-(ethyl-d5)-6-((2-methoxy-[1,1′-biphenyl]-3-yl)methyl)-7-(methylsulfonamido)-5-azaspiro[2.4]heptane-5-carboxamide]	10 to 100	70 to 80
[2H]c1c([2H])c([2H])c(-c2cccc(C[C@H]3[C@@H](NS(=O)(=O)CF)C4(CC4)CN3C(=O)[C@H]3CCO3)c2F)c([2H])c1[2H] [Compound 365, 1-fluoro-N-((6S,7S)-6-((2-fluoro-[1,1′-biphenyl]-3-yl-2′,3′,4′,5′,6′-d5)methyl)-5-((R)-oxetane-2-carbonyl)-5-azaspiro[2.4]heptan-7-yl)methanesulfonamide]	1 to 10	90 to 100

Next, values leading:

EC50 [nM]	Emax [%]	Compound
10 to 100	90 to 100	CS(=O)(=O)N[C@@H]1[C@H](Cc2cccc(-c3ccccc3)c2F)N(C(=O)[C@H](O)C(F)F)CC12CC2 [Compound 351, N-((6S,7S)-5-((S)-3,3-difluoro-2-hydroxypropanoyl)-6-((2-fluoro-[1,1′-biphenyl]-3-yl)methyl)-5-azaspiro[2.4]heptan-7-yl)methanesulfonamide]
10 to 100	90 to 100	COCCNC(=O)N1CC2(CC2)[C@H](NS(=O)(=O)CF)[C@@H]1Cc1cccc(-c2ccccc2)c1F [Compound 357, (6S,7S)-6-((2-fluoro-[1,1′-biphenyl]-3-yl)methyl)-7-((fluoromethyl)sulfonamido)-N-(2-methoxyethyl)-5-azaspiro[2.4]heptane-5-carboxamide]
1 to 10	90 to 100	CC(C#N)C(=O)N1CC2(CC2)[C@H](NS(C)(=O)=O)[C@@H]1Cc1cccc(-c2ccccc2)c1F (stereo partly drawn) [Compound 358, N-((6S,7S)-5-(2-cyanopropanoyl)-6-((2-fluoro-[1,1′-biphenyl]-3-yl)methyl)-5-azaspiro[2.4]heptan-7-yl)methanesulfonamide]
1 to 10	90 to 100	O=C([C@H](O)C(F)F)N1CC2(CC2)[C@H](NS(=O)(=O)CF)[C@@H]1Cc1cc(F)cc(-c2ccccc2)c1F [Compound 360, N-((6S,7S)-5-((S)-3,3-difluoro-2-hydroxypropanoyl)-6-((2,5-difluoro-[1,1′-biphenyl]-3-yl)methyl)-5-azaspiro[2.4]heptan-7-yl)-1-fluoromethanesulfonamide]
10 to 100	90 to 100	N#CCS(=O)(=O)N[C@@H]1[C@H](Cc2cccc(-c3ccccc3)c2F)N(C(=O)[C@H]2CCO2)CC12CC2 [Compound 362, 1-cyano-N-((6S,7S)-6-((2-fluoro-[1,1′-biphenyl]-3-yl)methyl)-5-((R)-oxetane-2-carbonyl)-5-azaspiro[2.4]heptan-7-yl)methanesulfonamide]
0.0794 to 1	90 to 100	C[C@H](CO)NC(=O)N1CC2(CC2)[C@H](NS(=O)(=O)C(F)F)[C@@H]1Cc1cccc(-c2ccccc2)c1F [Compound 364, (6S,7S)-7-((difluoromethyl)sulfonamido)-6-((2-fluoro-[1,1′-biphenyl]-3-yl)methyl)-N-((R)-1-hydroxypropan-2-yl)-5-azaspiro[2.4]heptane-5-carboxamide]
1 to 10	90 to 100	O=C(NCC1COC1)N1CC2(CC2)[C@H](NS(=O)(=O)CF)[C@@H]1Cc1cccc(-c2ccccc2)c1F [Compound 366, (6S,7S)-6-((2-fluoro-[1,1′-biphenyl]-3-yl)methyl)-7-((fluoromethyl)sulfonamido)-N-(oxetan-3-ylmethyl)-5-azaspiro[2.4]heptane-5-carboxamide]
0.0794 to 1	90 to 100	O=C(NCCF)N1CC2(CC2)[C@H](NS(=O)(=O)CF)[C@@H]1Cc1cccc(-c2ccccc2)c1F [Compound 367, (6S,7S)-6-((2-fluoro-[1,1′-biphenyl]-3-yl)methyl)-N-(2-fluoroethyl)-7-((fluoromethyl)sulfonamido)-5-azaspiro[2.4]heptane-5-carboxamide]
1 to 10	90 to 100	O=C(NC[C@@H]1CCO1)N1CC2(CC2)[C@H](NS(=O)(=O)C(F)F)[C@@H]1Cc1cccc(-c2ccccc2)c1F [Compound 368, (6S,7S)-7-((difluoromethyl)sulfonamido)-6-((2-fluoro-[1,1′-biphenyl]-3-yl)methyl)-N-(((S)-oxetan-2-yl)methyl)-5-azaspiro[2.4]heptane-5-carboxamide]
1 to 10	90 to 100	O=C(NC(CF)CF)N1CC2(CC2)[C@H](NS(=O)(=O)CF)[C@@H]1Cc1cccc(-c2ccccc2)c1F [Compound 369, (6S,7S)-N-(1,3-difluoropropan-2-yl)-6-((2-fluoro-[1,1′-biphenyl]-3-yl)methyl)-7-((fluoromethyl)sulfonamido)-5-azaspiro[2.4]heptane-5-carboxamide]
0.0794 to 1	90 to 100	COC1(CNC(=O)N2CC3(CC3)[C@H](NS(=O)(=O)CF)[C@@H]2Cc2cccc(-c3ccccc3)c2F)CC1 [Compound 370, (6S,7S)-6-((2-fluoro-[1,1′-biphenyl]-3-yl)methyl)-7-((fluoromethyl)sulfonamido)-N-((1-methoxycyclopropyl)methyl)-5-azaspiro[2.4]heptane-5-carboxamide]
1 to 10	90 to 100	O=C(NCCF)N1CC2(CC2)[C@H](NS(=O)(=O)CF)[C@@H]1Cc1cc(F)cc(-c2ccccc2)c1F [Compound 371, (6S,7S)-6-((2,5-difluoro-[1,1′-biphenyl]-3-yl)methyl)-N-(2-fluoroethyl)-7-((fluoromethyl)sulfonamido)-5-azaspiro[2.4]heptane-5-carboxamide]
1 to 10	90 to 100	COC[C@@H](O)C(=O)N1CC2(CC2)[C@H](NS(=O)(=O)CF)[C@@H]1Cc1cccc(-c2ccccc2)c1F [Compound 372, 1-fluoro-N-((6S,7S)-6-((2-fluoro-[1,1′-biphenyl]-3-yl)methyl)-5-((R)-2-hydroxy-3-methoxypropanoyl)-5-azaspiro[2.4]heptan-7-yl)methanesulfonamide]
